IC50 data for 25 compounds are collected here from patent US20200079758A1, “[4-(PHENYLSULFONYL)PIPERAZIN-1-YL](1H-1,2,3-TRIAZOL-4-YL)METHANONES” (priority 2016, published 2020).

Each structure is given as a SMILES string.

A word on the IC50: it is the concentration that gives 50% inhibition.

The test addresses T1, recombinant human AKR1C3 (Homo sapiens, UniProt P42330).
T1 construct: GST (cleaved yes); made in house; host or cells: E. coli
T1 sequence (P42330 1-323): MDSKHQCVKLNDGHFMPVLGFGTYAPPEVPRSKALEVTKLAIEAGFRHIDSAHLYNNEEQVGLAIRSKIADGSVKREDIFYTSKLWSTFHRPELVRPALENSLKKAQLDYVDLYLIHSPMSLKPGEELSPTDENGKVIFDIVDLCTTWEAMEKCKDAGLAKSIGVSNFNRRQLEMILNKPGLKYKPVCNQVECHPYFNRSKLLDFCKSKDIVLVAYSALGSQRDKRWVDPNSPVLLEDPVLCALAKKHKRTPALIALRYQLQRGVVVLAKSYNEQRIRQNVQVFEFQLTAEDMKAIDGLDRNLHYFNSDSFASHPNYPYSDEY
The test can be described thus: AKR1C3-inhibitory activity assay (generation of Coumberol from Coumberone). In kind it is biochemical. The following applies: Coumberone 0.3 μM, NADPH 10 μM, 22° C., typically 90 min, average or median values. The procedure: The AKR1C3-inhibitory activity of the substances of the present invention was measured in the AKR1C3 assay described in the paragraphs below.
Essentially, the enzyme activity is measured by quantification of the generation of Coumberol from Coumberone (Halim et al. J. AM. CHEM. SOC. 2008, 130:14123-14128 and Yee et al. Proc. Natl. Acad. Sci. USA 2006, 103:13304-13309). In this test, the increase of the highly fluorescent Coumberol by NADPH- (nicotinamide adenine dinucleotide phosphate)-dependent reduction of the non-fluorescent Coumberone by AKR1C3 was determined.
The enzyme used was recombinant human AKR1C3 (Aldo-keto reductase family 1 member C3; GenBank Accession No. NM_003739). This was expressed in E. coli as GST (glutathione S transferase) fusion protein and purified by glutathione Sepharose affinity chromatography. The GST was removed by digestion with thrombin and subsequent size exclusion chromatography (Dufort, I., Rheault, P., Huang, X F., Soucy, P., and Luu-The, V., Endocrinology 140, 568-574 (1999)).
For the assay, 50 nl of a 100-fold concentrated solution of the test substance in DMSO were pipetted into a black low-volume 384-well microtiter plate (Greiner Bio-One, Frickenhausen, Germany), 2.5 μl of a solution of AKR1C3 in assay buffer [50 mM potassium phosphate buffer pH 7, 1 mM DTT, 0.0022% (w/v) Pluronic F-127, 0.01% BSA (w/v) and protease inhibitor cocktail (Complete, EDTA-free Protease Inhibitor Cocktail from Roche)] were added and the mixture was incubated for 15 min to allow pre-binding of the substances to the enzyme prior to the enzyme reaction. The enzyme reaction was then started by addition of 2.5 μl of a solution of NADPH (20 μM→final concentration in 5 μl of assay volume is 10 μM) and Coumberone (0.6 μM→final concentration in 5 μl of assay volume is 0.3 μM) in assay buffer, and the resulting mixture was incubated at 22° C. for the reaction time of typically 90 min. The concentration of the AKR1C3 and the reaction time was adapted to the respective activity of the enzyme preparation and adjusted such that the assay was carried out in the linear range. Typical AKR1C3 concentrations were in the region of 1 nM. The reaction was stopped by addition of 2.5 μl of a stop solution consisting of 3 μM EM-1404 as inhibitor (U.S. Pat. No. 6,541,463) in 50 mM HEPES pH7.5 (3 μM EM-1404→final concentration in 7.5 μl of assay volume is 1 μM). The fluorescence of the Coumberole was then measured at 520 nm (excitation at 380 nm) using a suitable measuring instrument (Pherastar from BMG Labtechnologies). The intensity of the fluorescence was used as a measure of the amount of Coumberole formed and thus of the enzyme activity of AKR1C3. The data were normalized (enzyme reaction without inhibitor=0% inhibition; all other assay components, but no enzyme=100% inhibition).
As to `C[C@@H]1CN(S(=O)(=O)c2cccc(C#N)c2)C[C@H](C)N1C(=O)c1c[nH]nn1` [Example 54, 3-{[(3R,5S)-3,5-dimethyl-4-(1H-1,2,3-triazol-4-ylcarbonyl)piperazin-1-yl]sulfonyl}benzonitrile], the IC50 turned out to be 118 nM. For the compound `C[C@@H]1CN(S(=O)(=O)c2cccc(Cl)c2F)C[C@H](C)N1C(=O)c1c[nH]nn1` [Example 55, {(2R,6S)-4-[(3-chloro-2-fluorophenyl)sulfonyl]-2,6-dimethylpiperazin-1-yl}(1H-1,2,3-triazol-4-yl)methanone], the IC50 worked out at 10 nM.

Consider `C[C@@H]1CN(S(=O)(=O)c2cc(F)cc(F)c2)C[C@H](C)N1C(=O)c1c[nH]nn1` [Example 56, {(2R,6S)-4-[(3,5-difluorophenyl)sulfonyl]-2,6-dimethylpiperazin-1-yl}(1H-1,2,3-triazol-4-yl)methanone], for which the IC50 turned out to be 13 nM.

As to `C[C@@H]1CN(S(=O)(=O)c2cccc(C(F)(F)F)c2)C[C@H](C)N1C(=O)c1c[nH]nn1` [Example 57, [(2R,6S)-2,6-dimethyl-4-{[3-(trifluoromethyl)phenyl]sulfonyl}piperazin-1-yl](1H-1,2,3-triazol-4-yl)methanone], the IC50 was 10 nM.

With `C[C@@H]1CN(S(=O)(=O)c2cc(Cl)cc(Cl)c2)C[C@H](C)N1C(=O)c1c[nH]nn1` [Example 58, {(2R,6S)-4-[(3,5-dichlorophenyl)sulfonyl]-2,6-dimethylpiperazin-1-yl}(1H-1,2,3-triazol-4-yl)methanone], the IC50 was 2 nM. For `C[C@@H]1CN(S(=O)(=O)c2cc(F)ccc2F)C[C@H](C)N1C(=O)c1c[nH]nn1` [Example 59, {(2R,6S)-4-[(2,5-difluorophenyl)sulfonyl]-2,6-dimethylpiperazin-1-yl}(1H-1,2,3-triazol-4-yl)methanone], the IC50 turned out to be 4 nM. On to `C[C@@H]1CN(S(=O)(=O)c2ccc(F)c(F)c2)C[C@H](C)N1C(=O)c1c[nH]nn1` [Example 60, {(2R,6S)-4-[(3,4-difluorophenyl)sulfonyl]-2,6-dimethylpiperazin-1-yl}(1H-1,2,3-triazol-4-yl)methanone], for which the IC50 worked out at 47 nM.

`C[C@@H]1CN(C(=O)c2cnn[nH]2)[C@@H](C)CN1S(=O)(=O)c1ccc(Br)cc1` [Example 61, {(2S,5R)-4-[(4-bromophenyl)sulfonyl]-2,5-dimethylpiperazin-1-yl}(1H-1,2,3-triazol-5-yl)methanone]: the IC50 turned out to be 4 nM. Regarding `CC(=O)Nc1ccc(S(=O)(=O)N2C[C@H](C)N(C(=O)c3cnn[nH]3)C[C@H]2C)cc1` [Example 62, N-(4-{[(2R,5S)-2,5-dimethyl-4-(1H-1,2,3-triazol-5-ylcarbonyl)piperazin-1-yl]sulfonyl}phenyl)acetamide], the half-inhibitory concentration (IC50) amounted to 88 nM.

With `C[C@@H]1CN(C(=O)c2cnn[nH]2)[C@@H](C)CN1S(=O)(=O)c1ccc(Cl)cc1` [Example 63, {(2S,5R)-4-[(4-chlorophenyl)sulfonyl]-2,5-dimethylpiperazin-1-yl}(1H-1,2,3-triazol-5-yl)methanone], the IC50 was found to be 3 nM.

As for `C[C@@H]1CN(C(=O)c2cnn[nH]2)[C@@H](C)CN1S(=O)(=O)Cc1ccccc1` [Example 64, [(2S,5R)-4-(benzylsulfonyl)-2,5-dimethylpiperazin-1-yl](1H-1,2,3-triazol-5-yl)methanone], the IC50 was found to be 114 nM. Next, `C[C@@H]1CN(C(=O)c2cnn[nH]2)[C@@H](C)CN1S(=O)(=O)c1cccc2ccccc12` [Example 65, [(2S,5R)-2,5-dimethyl-4-(naphthalen-1-ylsulfonyl)piperazin-1-yl](1H-1,2,3-triazol-5-yl)methanone]: 2 nM; `C[C@@H]1CN(C(=O)c2cnn[nH]2)[C@@H](C)CN1S(=O)(=O)c1ccc(F)cc1` [Example 66, {(2S,5R)-4-[(4-fluorophenyl)sulfonyl]-2,5-dimethylpiperazin-1-yl}(1H-1,2,3-triazol-5-yl)methanone]: 4 nM.

`COc1ccc(S(=O)(=O)N2C[C@H](C)N(C(=O)c3cnn[nH]3)C[C@H]2C)cc1` [Example 67, {(2S,5R)-4-[(4-methoxyphenyl)sulfonyl]-2,5-dimethylpiperazin-1-yl}(1H-1,2,3-triazol-5-yl)methanone]: the IC50 is 7 nM. On to `C[C@@H]1CN(C(=O)c2cnn[nH]2)[C@@H](C)CN1S(=O)(=O)c1cccc2cccnc12` [Example 68, [(2S,5R)-2,5-dimethyl-4-(quinolin-8-ylsulfonyl)piperazin-1-yl](1H-1,2,3-triazol-5-yl)methanone], for which the IC50 turned out to be 7 nM. Next, `Cc1ccccc1S(=O)(=O)N1C[C@H](C)N(C(=O)c2cnn[nH]2)C[C@H]1C` [Example 69, {(2S,5R)-2,5-dimethyl-4-[(2-methylphenyl)sulfonyl]piperazin-1-yl}(1H-1,2,3-triazol-5-yl)methanone]: 1 nM; `Cc1ccc(C)c(S(=O)(=O)N2C[C@H](C)N(C(=O)c3cnn[nH]3)C[C@H]2C)c1` [Example 70, {(2S,5R)-4-[(2,5-dimethylphenyl)sulfonyl]-2,5-dimethylpiperazin-1-yl}(1H-1,2,3-triazol-5-yl)methanone]: 1 nM; `C[C@@H]1CN(C(=O)c2cnn[nH]2)[C@@H](C)CN1S(=O)(=O)c1ccc(OC(F)(F)F)cc1` [Example 71, [(2S,5R)-2,5-dimethyl-4-{[4-(trifluoromethoxy)phenyl]sulfonyl}piperazin-1-yl](1H-1,2,3-triazol-5-yl)methanone]: 22 nM. For the compound `C[C@@H]1CN(C(=O)c2cnn[nH]2)[C@@H](C)CN1S(=O)(=O)c1ccccc1OC(F)(F)F` [Example 72, [(2S,5R)-2,5-dimethyl-4-{[2-(trifluoromethoxy)phenyl]sulfonyl}piperazin-1-yl](1H-1,2,3-triazol-5-yl)methanone], the IC50 was 2 nM. As for `C[C@@H]1CN(C(=O)c2cnn[nH]2)[C@@H](C)CN1S(=O)(=O)c1ccccc1Cl` [Example 73, {(2S,5R)-4-[(2-chlorophenyl)sulfonyl]-2,5-dimethylpiperazin-1-yl}(1H-1,2,3-triazol-5-yl)methanone], the IC50 turned out to be 1 nM. In the case of `C[C@@H]1CN(C(=O)c2cnn[nH]2)[C@@H](C)CN1S(=O)(=O)c1cccc(Cl)c1` [Example 74, {(2S,5R)-4-[(3-chlorophenyl)sulfonyl]-2,5-dimethylpiperazin-1-yl}(1H-1,2,3-triazol-5-yl)methanone], the IC50 was determined as 1 nM. In the case of `Cc1cccc(S(=O)(=O)N2C[C@H](C)N(C(=O)c3cnn[nH]3)C[C@H]2C)c1` [Example 75, {(2S,5R)-2,5-dimethyl-4-[(3-methylphenyl)sulfonyl]piperazin-1-yl}(1H-1,2,3-triazol-5-yl)methanone], the IC50 was determined as 1 nM. Turning to `C[C@@H]1CN(C(=O)c2cnn[nH]2)[C@@H](C)CN1S(=O)(=O)c1ccccc1Br` [Example 76, {(2S,5R)-4-[(2-bromophenyl)sulfonyl]-2,5-dimethylpiperazin-1-yl}(1H-1,2,3-triazol-5-yl)methanone], the IC50 worked out at 1 nM. As for `Cc1c(Cl)cccc1S(=O)(=O)N1C[C@H](C)N(C(=O)c2cnn[nH]2)C[C@H]1C` [Example 77, {(2S,5R)-4-[(3-chloro-2-methylphenyl)sulfonyl]-2,5-dimethylpiperazin-1-yl}(1H-1,2,3-triazol-5-yl)methanone], the IC50 amounted to 2 nM.

Turning to `C[C@@H]1CN(C(=O)c2cnn[nH]2)[C@@H](C)CN1S(=O)(=O)c1cccc(Br)c1` [Example 78, {(2S,5R)-4-[(3-bromophenyl)sulfonyl]-2,5-dimethylpiperazin-1-yl}(1H-1,2,3-triazol-5-yl)methanone], the IC50 came out at 1 nM.
